# Experiments:
# [1] = system: plasma (prothrombin time); assay: Anticoagulatory activity: prothrombin time (PT) in plasma; conditions: 37° C., 3 minutes incubation, plasma species not given, in some cases means, read-out: IC50 [μM] (concentration of test substance which effects a doubling of the prothrombin time)
# Experimental: The anticoagulatory activity of the test substances is determined in vitro in human plasma, rabbit plasma and rat plasma. To this end, blood is drawn off in a mixing ratio of sodium citrate/blood of 1:9 using a 0.11 molar sodium citrate solution as receiver. Immediately after the blood has been drawn off, it is mixed thoroughly and centrifuged at about 4000 g for 15 minutes. The supernatant is pipetted off.
# The prothrombin time (PT, synonyms: thromboplastin time, quick test) is determined in the presence of varying concentrations of test substance or the corresponding solvent using a commercial test kit (Neoplastin® from Boehringer Mannheim or Hemoliance® RecombiPlastin from Instrumentation Laboratory). The test compounds are incubated with the plasma at 37° C. for 3 minutes. Coagulation is then started by addition of thromboplastin, and the time when coagulation occurs is determined. The concentration of test substance which effects a doubling of the prothrombin time is determined Representative activity data from this test are given in Table 3 below (in some cases as means of individual determinations): […]
# [2] = system: New Zealand rabbits; assay: Rabbit venous reperfusion and bleeding model (combi model rabbit); format: in vivo; conditions: for Increase in reperfusion (blood flow/time area): on top of tissue plasminogen activator; for Significance of increase in reperfusion: p > 0.05
# Experimental: Male New Zealand rabbits having a weight of 2.8-3.4 kg are anaesthetized using an intramuscular ketamine/Rompun bole injection. The animal is then shaved at the places needed for the surgery. A continuous infusion of anaesthetic (ketamine/Rompun) is administered via the left auricular vein using an indwelling catheter. Left and right femoral vein and right femoral artery are catheterized with a polyethylene tube (PESO). The jugular vein is then carefully exposed such that the vessel is stressed and damaged as little as possible and no more fat is present at the vessel. Using a suitable apparatus for measuring flow (Powerlab, Transonic TS420 incl. flow probe head), the flow in the jugular vein is recorded (Lab Chart Software). Prior to the start of the experiment, twice 1.4 ml of citrated blood are removed from the rabbit via the femoral artery, and the basal bleeding time at the rim of the ear is determined. Once there has been a constant flow from the jugular vein for 10 min (complete regeneration of the vessel after preparation), a 2 cm section of the vein is pinched off using small vessel clamps. In a Petri dish, the citrated blood removed earlier (300 μl) is mixed with calcium chloride (0.25 M, 90 μl) and thrombin (25 U/ml, 60 μl). 180 μl of the blood/calcium chloride/thrombin mixture are quickly drawn into a 1 ml syringe and, via a 27G cannula, injected into the pinched-off segment of the vessel. The injection site is pinched off with a pair of tweezers for one minute so that no blood can escape. Two minutes after injection of the thrombus, the test substance is administered as bole and infusion via the left femoral vein catheter. 14 minutes after the thrombus injection, tissue plasminogen activator is administered as bole and infusion (Actilyse®, 20 μg/kg bole & 150 μg/kg/h infusion) at the right femoral vein. 15 minutes after thrombus injection, the stasis is opened and the flow probe head is attached. Blood flow in the vessel is recorded for 120 minutes, and the vessel is kept moist with warm 0.9% aqueous sodium chloride solution during this time. After 105 minutes of reperfusion, the ear bleeding time is determined again. At the end of the experiment, after 120 minutes of reperfusion, 1.4 ml of citrated blood are removed, the animal is sacrificed painlessly by a bole injection of 1.5 ml of T61 and the weight of the thrombus in the jugular vein is determined. The blood removed before and after the experiment is used to obtain plasma and to determine the ex vivo coagulation time.
# The area obtainable with tissue plasminogen activator alone is subtracted from the area achieved using the respective substance or dosage. The resulting area is a measure of the improvement of reperfusion by the test substance (Table 4).
# [3] = target: T1, thrombin (Homo sapiens (Human), UniProt P00734); assay: Measurement of the thrombin inhibition in buffer; format: biochemical; conditions: human thrombin 0.06 nmol/l, Tris buffer pH 7.4, 22° C.; substrate Boc-Asp(OBzl)-Pro-Arg-AMC; in some cases means
# Experimental: To determine the thrombin inhibition of the substances listed above, a biochemical test system is constructed in which the conversion of a thrombin substrate is used for determining the enzymatic activity of human thrombin. Here, thrombin cleaves aminomethylcoumarin, which is measured fluorescently, from the peptic substrate. The determinations are carried out in microtitre plates.
# Substances to be tested are dissolved in various concentrations in dimethyl sulphoxide and incubated for 15 min with human thrombin (0.06 nmol/l dissolved in 50 mmol/l of Tris buffer [C,C,C-tris(hydroxymethyl)aminomethane], 100 mmol/l of sodium chloride, 0.1% BSA [bovine serum albumin], pH 7.4) at 22° C. The substrate (5 μmol/l Boc-Asp(OBzl)-Pro-Arg-AMC from Bachem) is then added. After 30 min of incubation, the sample is excited at a wavelength of 360 nm and the emission is measured at 460 nm. The measured emissions of the test batches with test substance are compared to the control batches without test substance (only dimethyl sulphoxide instead of test substance in dimethyl sulphoxide) and the IC50 values are calculated from the concentration/activity relationships.
# [4] = target: T1, thrombin; assay: Thrombin-inhibitory activity in plasma samples (ecarin-activated); format: biochemical; conditions: citrate plasma, prothrombinase activated by ecarin, fluorogenic thrombin substrate; in some cases means; read-out: IC50 [nM] thrombin inhibition in plasma samples
# Experimental: To determine the inhibition of thrombin in plasma samples, plasma […] is activated by ecarin. Thrombin activity and/or its inhibition by potential inhibitors is/are then measured fluorenscently by addition of a substrate.
# The substances to be tested are dissolved in various concentrations in dimethyl sulphoxide and diluted with water. In white 96-well flat-bottomed plates, 20 μl of substance dilution are mixed with 20 μl of ecarin solution (ecarin reagent, from Sigma E-0504, final concentration 20 mU per reaction) in Ca buffer (200 mM Hepes+560 mM sodium chloride+10 mM calcium chloride+0.4% PEG) or with 20 μl of Ca buffer (as unstimulated control). Furthermore, 20 μl of fluorogenic thrombin substrate (from Bachem I-1120, final concentration 50 μmol/l) and 20 μl of citrate plasma (from Octapharma) are added, and the mixture is homogenized well. The plate is measured in a SpectraFluorplus Reader using a 360 nm excitation filter and a 465 nm emission filter every minute over 20 minutes.
# [5] = bole 0.33 mg/kg, continuous infusion 0.43 mg/kg/h
# [6] = bole 0.08 mg/kg, continuous infusion 0.09 mg/kg/h
Compound,IC50 [1] [µM],IC50 [3] [nM],IC50 [4] [nM],"Increase in reperfusion (blood flow/time area) [2, 5] [%]","Significance of increase in reperfusion [2, 5]","Increase in reperfusion (blood flow/time area) [2, 6] [%]","Significance of increase in reperfusion [2, 6]"
"COc1cc(C(=O)N2CC(C)OC[C@]23C[C@H](O)C3)cc2nc(NC(CF)c3cccc(Cl)c3)oc12 (stereo partly drawn) [Example 21, (2-{[1-(3-Chlorophenyl)-2-fluoroethyl]amino}-7-methoxy-1,3-benzoxazol-5-yl)(cis-2-hydroxy-7-methyl-8-oxa-5-azaspiro[3.5]non-5-yl)methanone]",1.3,1.4,6.2,–,–,–,–
"O=C(NC[C@H]1CN(c2ccc(N3CCOCC3=O)cc2)C(=O)O1)c1ccc(Cl)s1 [rivaroxaban, 5-chloro-N-({(5S)-2-oxo-3-[4-(3-oxo-4-morpholinyl)-phenyl]-1,3-oxazolidin-5-yl}methyl)-2-thiophenecarboxamide, reference compound]",–,–,–,–,–,13.0,insignificant effect

# Second part, led by results:
IC50 [1] [µM],IC50 [3] [nM],IC50 [4] [nM],Compound,"Increase in reperfusion (blood flow/time area) [2, 5] [%]","Significance of increase in reperfusion [2, 5]","Increase in reperfusion (blood flow/time area) [2, 6] [%]","Significance of increase in reperfusion [2, 6]"
1.1,–,–,"COc1cc(C(=O)N2CC(C)OC[C@@H]2CCO)cc2nc(NC(CF)c3cccc(Cl)c3)oc12 (single isomer, unassigned) [Example 15]",12.2,insignificant effect,–,–
1.5,0.1,14.7,"COc1cc(C(=O)N2CC(C)(CC(C)O)OC[C@H]2C)cc2nc(NC(CF)c3cccc(Cl)c3)oc12 (stereo partly drawn) [Example 12, (2-{[1-(3-Chlorophenyl)-2-fluoroethyl]amino}-7-methoxy-1,3-benzoxazol-5-yl)[(5R)-2-(2-hydroxypropyl)-2,5-dimethylmorpholin-4-yl]methanone]",–,–,–,–
1.1,4.3,4.7,"COc1cc(C(=O)N2CC(C)(C)OC[C@H]2CCO)cc2nc(NC(CF)c3cccc(Cl)c3)oc12 (stereo partly drawn) [Example 25, (2-{[1-(3-Chlorophenyl)-2-fluoroethyl]amino}-7-methoxy-0,2-benzoxazol-5-yl)[(5R)-5-(2-hydroxyethyl)-2,2-dimethylmorpholin-4-yl]methanone]",–,–,–,–
